Assay results from ChEMBL document CHEMBL1149697, “Identification of dissociated non-steroidal glucocorticoid receptor agonists” (Bioorg Med Chem Lett, 2007).

Assays:
HFF [1] = assay: Antiinflammatory activity assessed as inhibition of IL1 stimulated IL6 production in HFF cells by transrepression assay; format: functional, cell-based; details: Homo sapiens
HFF [2] = assay: Antiinflammatory activity assessed as inhibition of IL6 production in HFF cells by transrepression assay relative to dexamethasone; format: functional, Homo sapiens
HFF [3] = assay: Antiinflammatory activity assessed as upregulation of aromatase in HFF cells by transactivation assay; format: functional, cell-based; details: Homo sapiens
HFF [4] = assay: Antiinflammatory activity assessed as upregulation of aromatase in HFF cells by transactivation assay relative to dexamethasone; format: functional, Homo sapiens; design: concentration or dose not given beside the values
Homo sapiens = organism: Homo sapiens; assay: Selectivity ratio of human GR over human PR
Glucocorticoid receptor = target: T1, Glucocorticoid receptor (Homo sapiens, UniProt P04150)
T1 sequence (P04150 whole entry): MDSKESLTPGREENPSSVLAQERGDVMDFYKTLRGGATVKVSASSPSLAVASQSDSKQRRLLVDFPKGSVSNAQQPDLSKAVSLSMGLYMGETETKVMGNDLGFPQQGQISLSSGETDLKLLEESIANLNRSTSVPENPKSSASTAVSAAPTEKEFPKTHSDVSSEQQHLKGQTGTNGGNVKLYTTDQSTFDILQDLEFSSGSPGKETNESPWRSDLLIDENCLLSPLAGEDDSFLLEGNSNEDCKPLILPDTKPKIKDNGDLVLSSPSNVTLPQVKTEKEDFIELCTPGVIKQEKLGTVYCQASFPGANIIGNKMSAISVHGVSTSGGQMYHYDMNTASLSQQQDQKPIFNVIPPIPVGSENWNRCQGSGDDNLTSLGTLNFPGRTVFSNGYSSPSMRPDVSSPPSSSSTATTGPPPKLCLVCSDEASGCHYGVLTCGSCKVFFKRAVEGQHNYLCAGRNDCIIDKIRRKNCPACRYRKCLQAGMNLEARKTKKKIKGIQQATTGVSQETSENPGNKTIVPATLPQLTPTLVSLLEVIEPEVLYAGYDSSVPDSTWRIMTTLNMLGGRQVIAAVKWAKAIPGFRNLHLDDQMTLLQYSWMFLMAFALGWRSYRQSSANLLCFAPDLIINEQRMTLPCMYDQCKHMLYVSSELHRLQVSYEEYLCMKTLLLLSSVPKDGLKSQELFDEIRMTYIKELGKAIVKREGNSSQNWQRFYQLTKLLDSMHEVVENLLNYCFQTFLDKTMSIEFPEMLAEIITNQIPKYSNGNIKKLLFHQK

Progesterone receptor = target: T2, Progesterone receptor (Homo sapiens, UniProt P06401); assay: Displacement of TAMRA labeled mifepristone at human progesterone receptor in insect cell
T2 sequence (P06401 whole entry): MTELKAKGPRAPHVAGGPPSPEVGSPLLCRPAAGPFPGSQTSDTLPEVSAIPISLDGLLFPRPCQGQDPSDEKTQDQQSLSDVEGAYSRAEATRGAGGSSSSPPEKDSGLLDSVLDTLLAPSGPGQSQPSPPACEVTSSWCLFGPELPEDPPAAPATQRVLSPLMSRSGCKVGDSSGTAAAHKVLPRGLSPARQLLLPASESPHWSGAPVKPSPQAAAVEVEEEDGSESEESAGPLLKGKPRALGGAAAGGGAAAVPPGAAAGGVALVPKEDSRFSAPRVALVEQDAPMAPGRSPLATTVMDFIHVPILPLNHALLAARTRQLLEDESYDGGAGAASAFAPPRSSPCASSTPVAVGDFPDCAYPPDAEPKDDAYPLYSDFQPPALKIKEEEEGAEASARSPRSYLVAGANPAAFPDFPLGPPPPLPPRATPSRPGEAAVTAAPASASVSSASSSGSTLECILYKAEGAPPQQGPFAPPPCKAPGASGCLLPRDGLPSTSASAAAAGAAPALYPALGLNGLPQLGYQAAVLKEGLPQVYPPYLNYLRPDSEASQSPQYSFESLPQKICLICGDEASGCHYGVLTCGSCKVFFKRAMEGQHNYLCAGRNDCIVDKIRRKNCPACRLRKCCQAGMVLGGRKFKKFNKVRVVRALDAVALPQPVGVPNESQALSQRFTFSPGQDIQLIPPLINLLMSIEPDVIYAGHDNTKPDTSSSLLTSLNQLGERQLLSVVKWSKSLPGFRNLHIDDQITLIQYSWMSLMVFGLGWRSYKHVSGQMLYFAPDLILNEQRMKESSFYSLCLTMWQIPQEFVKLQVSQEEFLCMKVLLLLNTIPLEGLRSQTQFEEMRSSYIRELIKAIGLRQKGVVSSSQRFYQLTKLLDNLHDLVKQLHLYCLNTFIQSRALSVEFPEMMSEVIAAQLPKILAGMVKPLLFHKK

[5] = target: T3, Mineralocorticoid receptor (Homo sapiens, UniProt P08235); assay: Displacement of TAMRA labeled dexamethasone at human mineralocorticoid receptor in insect cell
T3 sequence (P08235 whole entry): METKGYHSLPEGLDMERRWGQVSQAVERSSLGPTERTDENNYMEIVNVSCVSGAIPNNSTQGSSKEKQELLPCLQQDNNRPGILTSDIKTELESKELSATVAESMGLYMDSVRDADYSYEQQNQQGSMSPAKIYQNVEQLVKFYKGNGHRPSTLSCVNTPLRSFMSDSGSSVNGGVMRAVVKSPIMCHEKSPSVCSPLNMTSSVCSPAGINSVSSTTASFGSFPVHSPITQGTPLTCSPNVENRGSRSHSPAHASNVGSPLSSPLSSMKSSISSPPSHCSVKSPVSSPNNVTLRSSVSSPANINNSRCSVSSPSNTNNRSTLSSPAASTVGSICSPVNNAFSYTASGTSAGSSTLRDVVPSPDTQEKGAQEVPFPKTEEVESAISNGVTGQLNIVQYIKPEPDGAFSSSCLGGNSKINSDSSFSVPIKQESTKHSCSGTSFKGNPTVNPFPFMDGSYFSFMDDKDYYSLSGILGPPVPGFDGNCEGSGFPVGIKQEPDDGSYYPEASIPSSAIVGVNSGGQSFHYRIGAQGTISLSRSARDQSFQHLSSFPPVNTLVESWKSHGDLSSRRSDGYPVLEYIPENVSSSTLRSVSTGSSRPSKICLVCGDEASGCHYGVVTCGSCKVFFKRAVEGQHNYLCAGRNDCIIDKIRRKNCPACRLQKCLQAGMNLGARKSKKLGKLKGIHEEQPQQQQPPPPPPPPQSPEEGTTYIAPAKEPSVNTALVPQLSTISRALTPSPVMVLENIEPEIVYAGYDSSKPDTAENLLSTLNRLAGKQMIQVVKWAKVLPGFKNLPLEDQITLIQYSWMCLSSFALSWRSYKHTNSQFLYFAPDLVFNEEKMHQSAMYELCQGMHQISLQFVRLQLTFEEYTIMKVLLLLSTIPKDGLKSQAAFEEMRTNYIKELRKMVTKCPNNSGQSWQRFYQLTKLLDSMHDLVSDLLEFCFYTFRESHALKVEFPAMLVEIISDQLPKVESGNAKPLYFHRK

IC50 (Glucocorticoid receptor) [nM]	IC50 (Progesterone receptor) [nM]	IC50 [5] [nM]	SMILES	EC50 (HFF [1]) [nM]	Efficacy (HFF [2]) [%]	EC50 (HFF [3]) [nM]	Activity (HFF [4]) [%]	Ratio IC50 (Homo sapiens)
11	390	300	COc1ccc(F)cc1C(C)(C)CC(O)(Cc1cc(C)c(C#N)c(C)c1)C(F)(F)F (stereo not drawn)	4	95	8	115	35
27	> 2000	730	COc1ccc(F)cc1C(C)(C)CC(O)(Cc1cc(Cl)cc(C#N)c1)C(F)(F)F (stereo not drawn)	> 2000	46	4750	53	

SMILES	IC50 (Glucocorticoid receptor) [nM]	IC50 (Progesterone receptor) [nM]	IC50 [5] [nM]	EC50 (HFF [1]) [nM]	Efficacy (HFF [2]) [%]	EC50 (HFF [3]) [nM]	Activity (HFF [4]) [%]	Ratio IC50 (Homo sapiens)
COc1ccc(F)cc1C(C)(C)CC(O)(Cc1cc(C)cc(C)c1C#N)C(F)(F)F (stereo not drawn)	8	1800	250	40	83	250	75	225
